Results taken from PMC6099957, “Mouse β-Defensin 3, A Defensin Inhibitor of Both Its Endogenous and Exogenous Potassium Channels” (Molecules : A Journal of Synthetic Chemistry and Natural …, 2018).
Where two headings read alike, the source gives them in different places. No end group written: not given here.

How the values were obtained:
Kv1.6-M428A channel = experiment: Patch clamp, mouse Kv1.6 pore region mutant M428A; type: cell-based; settings: 1 μM rmBD3; HEK293 cells; mean ± SE, at least three times; SEM
Text: (§1) The pRc/CMV-hKv1.3 vector was kindly provided by Prof. Stephan Grissmer (University of Ulm, Ulm, Germany) and Prof. Olaf Pongs (Zentrum für Molekulare Neurobiologie der University Hamburg, Hamburg, Germany). The cDNAs encoding human Kv1.1, Kv1.2, hERG and KCNQ1/KCNE1 channels were subcloned into the vector pIRES2-EGFP (TaKaRa Clontech, Mountain View, CA, USA) for coexpression with the green fluorescent protein (GFP), and the other channels were subcloned into vector pcDNA 3.1(+) (TaKaRa Clontech, Mountain View, CA, USA) for coexpression with GFP. The constructs were verified by DNA sequencing (Sangon Biotech, Shanghai, China). The mutants Asp400, Asp401, Val402, Asp403, Asp411, Met428 and Tyr429 on the pore region of wild type mouse Kv1.6 channel plasmids were mutated into Ala with QuikChange Site-Directed Mutagenesis Kit (Agilent Stratagene, Santa Clara, CA, USA). All the mutants were verified by DNA sequencing before being used (Sangon Biotech, China).
(§2) Human embryonic kidney 293 (HEK293) cells were cultured Dulbecco’s modified Eagle medium (Thermo Fisher Scientific, Pittsburgh, PA. USA) with 10% heat-inactivated fetal calf serum supplemented with penicillin (100 units/mL) and streptomycin (100 μg/mL) in a humidified 5% CO2 incubator at 37 °C. […] Potassium currents were recorded after transfection for 1 to 3 days and positive cells were selected based on the presence of GFP fluorescence. […]

mouse Kv1.3 channel = experiment: Whole-cell patch clamp, mouse Kv1.3 channel in HEK293 cells; type: cell-based; settings: 1 μM rmBD3, mean ± SE, at least three times, SEM
Experimental: (§3) Human embryonic kidney 293 (HEK293) cells were cultured Dulbecco’s modified Eagle medium (Thermo Fisher Scientific, Pittsburgh, PA. USA) with 10% heat-inactivated fetal calf serum supplemented with penicillin (100 units/mL) and streptomycin (100 μg/mL) in a humidified 5% CO2 incubator at 37 °C. Plasmids were transfected into HEK293 cells using the TurboFect in vitro Transfection Reagent (Thermo Fisher Scientific, Pittsburgh, PA, USA). Potassium currents were recorded after transfection for 1 to 3 days and positive cells were selected based on the presence of GFP fluorescence.
(§4) Electrophysiological experiments were carried out at room temperature using the whole-cell recording mode by EPC10 patch clamp amplifier (Heka Elektronik, Lambrecht, Germany), which was controlled by Patchmaster software version 2 × 65 (Heka Elektronik, Holliston, MA, USA). For all the channels, HEK293 cells were bathed with mammalian Ringer’s solution contained 5 mM KCl, 140 mM NaCl, 10 mM HEPES, 2 mM CaCl2, 1 mM MgCl2 and 10 mM D-glucose (pH adjusted to 7.4 with NaOH). When rmBD3 was applied, 0.01% BSA was added to the Ringer’s solution. A multichannel microperfusion system MPS-2 (INBIO Inc., Wuhan, China) was used to exchange the external recording bath solution. […] The currents through Kv channels and KCNQ1/KCNE1 channel were recorded according to previously published references. […]

mouse Kv1.1 channel = experiment: Whole-cell patch clamp, mouse Kv1.1 channel in HEK293 cells; type: cell-based; settings: 1 μM rmBD3, mean ± SE, at least three times, SEM
Experimental: as §3, §4

human Kv1.1 channel = experiment: Whole-cell patch clamp, human Kv1.1 channel in HEK293 cells; type: cell-based; settings: 1 μM rmBD3, mean ± SE, at least three times, SEM
Text: as §1, §2

human Kv1.2 channel = experiment: Whole-cell patch clamp, human Kv1.2 channel in HEK293 cells; type: cell-based; settings: 1 μM rmBD3, mean ± SE, at least three times, SEM
Text: as §1, §2

Kv1.6-D403A channel = experiment: Patch clamp, mouse Kv1.6 pore region mutant D403A; type: cell-based; settings: 1 μM rmBD3; HEK293 cells; mean ± SE, at least three times; SEM
Text: as §1, §2

human KCNQ1 channel = type: cell-based; settings: 1 μM rmBD3; HEK293 cells; mean ± SE, at least three times; SEM
Experimental: as §3, §4

Kv1.6-D411A channel = experiment: Patch clamp, mouse Kv1.6 pore region mutant D411A; type: cell-based; settings: 1 μM rmBD3; HEK293 cells; mean ± SE, at least three times; SEM
Text: as §1, §2

human Kv1.6 channel = experiment: Whole-cell patch clamp, human Kv1.6 channel in HEK293 cells; type: cell-based; settings: 1 μM rmBD3, mean ± SE, at least three times, SEM
Experimental: as §3, §4

human Kv1.3 channel = experiment: Whole-cell patch clamp, human Kv1.3 channel in HEK293 cells; type: cell-based; settings: 1 μM rmBD3, mean ± SE, at least three times, SEM
Text: as §1, §2

Kv1.6-V402A channel = experiment: Patch clamp, mouse Kv1.6 pore region mutant V402A; type: cell-based; settings: 1 μM rmBD3; HEK293 cells; mean ± SE, at least three times; SEM
Text: as §1, §2

Kv1.6-D401A channel = experiment: Patch clamp, mouse Kv1.6 pore region mutant D401A; type: cell-based; settings: 1 μM rmBD3; HEK293 cells; mean ± SE, at least three times; SEM
Text: as §1, §2

Kv1.6-D400A channel = experiment: Patch clamp, mouse Kv1.6 pore region mutant D400A; type: cell-based; settings: 1 μM rmBD3; HEK293 cells; mean ± SE, at least three times; SEM
Text: as §1, §2

[1] = test system: human KCNQ1/KCNE1 channel; type: cell-based; settings: HEK293 cells, mean ± SE, SEM; for inhibition of human KCNQ1/KCNE1 channel currents: at least three times
Text: as §1, §3
Electrophysiological experiments were carried out at room temperature using the whole-cell recording mode by EPC10 patch clamp amplifier (Heka Elektronik, Lambrecht, Germany), which was controlled by Patchmaster software version 2 × 65 (Heka Elektronik, Holliston, MA, USA). For all the channels, HEK293 cells were bathed with mammalian Ringer’s solution contained 5 mM KCl, 140 mM NaCl, 10 mM HEPES, 2 mM CaCl2, 1 mM MgCl2 and 10 mM D-glucose (pH adjusted to 7.4 with NaOH). When rmBD3 was applied, 0.01% BSA was added to the Ringer’s solution. A multichannel microperfusion system MPS-2 (INBIO Inc., Wuhan, China) was used to exchange the external recording bath solution. The internal pipette solution contains 140 mM KCl, 1 mM MgCl2, 1 mM EGTA, 1 mM Na2ATP and 5 mM HEPES (pH adjusted to 7.4 with NaOH). All channel currents were elicited by depolarizing voltage steps of 200 ms from the holding potential −80 mV to +50 mV. Currents were typically digitized at 20 kHz and filtered at 2.9 kHz (Bessel). […] The currents through Kv channels and KCNQ1/KCNE1 channel were recorded according to previously published references.
The IC50 values were obtained by fitting a modified Hill equation to the data with the formula: IrmBD3/Icontrol = 1/(1 + [rmBD3]/IC50), where [rmBD3] is the concentration of rmBD3, IrmBD3 and Icontrol are the peak currents in the presence and absence of rmBD3 at four different concentrations. The conductance of mouse Kv1.6 channel was calculated by the formula: G = Ipeak/(V − EKv1.6), where Ipeak is the peak current, EKv1.6 is the reversal potential of the Kv1.6 channel. The conductance-voltage (G-V) curves were generated by the measured peak currents and fitted with a V50-V equation using the formula: G/Gmax = 1/(1 + exp [(V − V50)/k]), where G is the conductance of the channels, Gmax is the maximal channel conductance, V is the membrane voltage, V50 is the voltage of half-maximal activation, and k is the slope factor. […]

mouse Kv1.6 channel = experiment: Whole-cell patch clamp, mouse Kv1.6 channel in HEK293 cells; type: cell-based; settings: mean ± SE, SEM; for inhibition of mouse Kv1.6 channel currents: at least three times
Experimental: as §3
Electrophysiological experiments were carried out at room temperature using the whole-cell recording mode by EPC10 patch clamp amplifier (Heka Elektronik, Lambrecht, Germany), which was controlled by Patchmaster software version 2 × 65 (Heka Elektronik, Holliston, MA, USA). For all the channels, HEK293 cells were bathed with mammalian Ringer’s solution contained 5 mM KCl, 140 mM NaCl, 10 mM HEPES, 2 mM CaCl2, 1 mM MgCl2 and 10 mM D-glucose (pH adjusted to 7.4 with NaOH). When rmBD3 was applied, 0.01% BSA was added to the Ringer’s solution. A multichannel microperfusion system MPS-2 (INBIO Inc., Wuhan, China) was used to exchange the external recording bath solution. The internal pipette solution contains 140 mM KCl, 1 mM MgCl2, 1 mM EGTA, 1 mM Na2ATP and 5 mM HEPES (pH adjusted to 7.4 with NaOH). All channel currents were elicited by depolarizing voltage steps of 200 ms from the holding potential −80 mV to +50 mV. Currents were typically digitized at 20 kHz and filtered at 2.9 kHz (Bessel). Electrode resistances were 3.0–5.0 MΩ, and the series resistance was usually compensated by 85%. The currents through Kv channels and KCNQ1/KCNE1 channel were recorded according to previously published references.
The IC50 values were obtained by fitting a modified Hill equation to the data with the formula: IrmBD3/Icontrol = 1/(1 + [rmBD3]/IC50), where [rmBD3] is the concentration of rmBD3, IrmBD3 and Icontrol are the peak currents in the presence and absence of rmBD3 at four different concentrations. The conductance of mouse Kv1.6 channel was calculated by the formula: G = Ipeak/(V − EKv1.6), where Ipeak is the peak current, EKv1.6 is the reversal potential of the Kv1.6 channel. The conductance-voltage (G-V) curves were generated by the measured peak currents and fitted with a V50-V equation using the formula: G/Gmax = 1/(1 + exp [(V − V50)/k]), where G is the conductance of the channels, Gmax is the maximal channel conductance, V is the membrane voltage, V50 is the voltage of half-maximal activation, and k is the slope factor. The data were presented as the means ± SE of at least three times repeated experiments. Sigmaplot 12.5 and GraphPad Prism 5 software were used for analysis.

hERG channel = type: cell-based, human; settings: 1 μM rmBD3; HEK293 cells; mean ± SE, at least three times; SEM
Text: as §1, §2

human Kv3.2 channel = experiment: Whole-cell patch clamp, human Kv3.2 channel in HEK293 cells; type: cell-based; settings: 1 μM rmBD3, mean ± SE, at least three times, SEM
Experimental: as §3, §4

Kv1.6-Y429A channel = experiment: Patch clamp, mouse Kv1.6 pore region mutant Y429A; type: cell-based; settings: 1 μM rmBD3; HEK293 cells; mean ± SE, at least three times; SEM
Text: as §1, §2

mouse Kv1.2 channel = experiment: Whole-cell patch clamp, mouse Kv1.2 channel in HEK293 cells; type: cell-based; settings: 1 μM rmBD3, mean ± SE, at least three times, SEM
Experimental: as §3, §4

With “mouse β-defensin 3 (KKINNPVSCLRKGGRCWNRCIGNTRQIGSCGVPFLKCCKRK; ends and bridges not checked; cysteine pairing not given here; UniProt Q9WTL0 23-63, looked up) [rmBD3, Recombinant mouse β-defensin 3 expressed in E. coli, cleaved from His-tag fusion by Enterokinase, HPLC purified]” the “inhibition of mutant Kv1.6-M428A channel” value (Kv1.6-M428A channel) was 39.3 ± 1.8%, the “inhibition of mouse Kv1.3 potassium currents” value (mouse Kv1.3 channel) was 14.0 ± 3.7% and the “inhibition of mouse Kv1.1 potassium currents” value (mouse Kv1.1 channel) was 19.0 ± 2.2%. The “inhibition of human Kv1.1 potassium currents” value (human Kv1.1 channel) was 8.8 ± 3.0%, the “inhibition of human Kv1.2 potassium currents” value (human Kv1.2 channel) was 9.3 ± 0.8% and the “inhibition of mutant Kv1.6-D403A channel” value (Kv1.6-D403A channel) was 35.6 ± 1.0%. The “inhibition of human KCNQ1 channel currents” value (human KCNQ1 channel) was 26.1 ± 4.8%, the “inhibition of mutant Kv1.6-D411A channel” value (Kv1.6-D411A channel) was 43.2 ± 3.5% and the “inhibition of human Kv1.6 potassium currents” value (human Kv1.6 channel) was 31.2 ± 3.6%. The “inhibition of human Kv1.3 potassium currents” value (human Kv1.3 channel) was 14.6 ± 0.9%, the “inhibition of mutant Kv1.6-V402A channel” value (Kv1.6-V402A channel) was 21.8 ± 4.5% and the “inhibition of mutant Kv1.6-D401A channel” value (Kv1.6-D401A channel) was 20.7 ± 4.5%. For the same substance, the “inhibition of mutant Kv1.6-D400A channel” value (Kv1.6-D400A channel) was 54.9 ± 1.9%, the “inhibition of human KCNQ1/KCNE1 channel currents” value ([1]; 10 nM rmBD3) was 21.8 ± 3.6% and the “inhibition of human KCNQ1/KCNE1 channel currents” value ([1]; 100 nM rmBD3) was 32.4 ± 1.8%. For the same substance, the “inhibition of human KCNQ1/KCNE1 channel currents” value ([1]; 1 μM rmBD3) was 46.3 ± 4.2%, the “inhibition of human KCNQ1/KCNE1 channel currents” value ([1]; 10 μM rmBD3) was 68.8 ± 3.8% and the IC50 ([1]; Hill equation fitting, four concentrations, read-out: IC50, human KCNQ1/KCNE1 channel currents) was 1200 ± 800 nM. The “inhibition of mouse Kv1.6 channel currents” value (mouse Kv1.6 channel; 1 nM rmBD3, HEK293 cells) was 18.1 ± 2.4%, the “inhibition of mouse Kv1.6 channel currents” value (mouse Kv1.6 channel; 10 nM rmBD3, HEK293 cells) was 26.4 ± 1.8% and the “inhibition of mouse Kv1.6 channel currents” value (mouse Kv1.6 channel; 1 μM rmBD3, HEK293 cells, whole-cell patch clamp) was 56.1 ± 4.2%. The “inhibition of mouse Kv1.6 channel currents” value (mouse Kv1.6 channel; 10 μM rmBD3, HEK293 cells) was 73.1 ± 2.2%, the IC50 (mouse Kv1.6 channel; Hill equation fitting, four concentrations, HEK293 cells, read-out: IC50, mouse Kv1.6 channel currents) was 600 ± 400 nM and the “k (slope factor) of activation G-V curve of Kv1.6 channel in the presence of rmBD3” value (mouse Kv1.6 channel; after treatment with 1 μM rmBD3 (control 6.8 ± 0.6), Boltzmann fitting) was 6.5 ± 0.4. For the same substance, the “V50 of activation G-V curve of Kv1.6 channel in the presence of rmBD3” value (mouse Kv1.6 channel; after treatment with 1 μM rmBD3 (control −23.8 ± 0.7 mV), Boltzmann fitting) was −18.8 ± 0.5 mV, the “inhibition of hERG potassium currents” value (hERG channel) was 14.7 ± 3.9% and the “inhibition of human Kv3.2 potassium currents” value (human Kv3.2 channel) was 11.6 ± 1.3%. For the same substance, the “inhibition of mutant Kv1.6-Y429A channel” value (Kv1.6-Y429A channel) was 36.7 ± 2.0% and the “inhibition of mouse Kv1.2 potassium currents” value (mouse Kv1.2 channel) was 4.9 ± 0.6%.
